# “Also recorded” adds a separate entry of the source. Where two headings read alike, the source gives them in different places.
# Key:
# wild type mCOX-2 = target: T1, wild type mCOX-2 (Mus musculus, UniProt Q05769); assay: biochemical
# T1 sequence (Q05769 18-604): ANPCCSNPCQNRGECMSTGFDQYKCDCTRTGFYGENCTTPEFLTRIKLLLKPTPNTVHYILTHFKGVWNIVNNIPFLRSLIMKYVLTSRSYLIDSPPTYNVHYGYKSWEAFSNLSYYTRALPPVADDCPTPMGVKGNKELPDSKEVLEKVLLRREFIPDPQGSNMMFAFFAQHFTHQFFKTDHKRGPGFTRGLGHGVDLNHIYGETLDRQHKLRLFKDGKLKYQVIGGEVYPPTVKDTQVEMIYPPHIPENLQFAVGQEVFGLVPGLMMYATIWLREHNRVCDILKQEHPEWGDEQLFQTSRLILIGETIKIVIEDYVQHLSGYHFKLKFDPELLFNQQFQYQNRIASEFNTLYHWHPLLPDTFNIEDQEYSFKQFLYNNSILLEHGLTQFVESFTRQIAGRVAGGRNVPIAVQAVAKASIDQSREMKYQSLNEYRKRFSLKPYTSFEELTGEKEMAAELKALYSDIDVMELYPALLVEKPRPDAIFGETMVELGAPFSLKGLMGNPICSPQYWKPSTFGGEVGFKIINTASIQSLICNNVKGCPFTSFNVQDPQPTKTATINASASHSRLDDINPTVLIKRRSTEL
# COX-2 = target: T2, COX-2 (Mus musculus, UniProt Q05769); assay: Inhibition of COX-2 oxygenation by acetaminophen and its metabolites; format: biochemical; details: for Inhibition of AA oxygenation: up to 1 mM
# T2 sequence (Q05769 18-604): T1 sequence (Q05769 18-604)
# [1] = tested on: brain eCB, AA and PG levels; assay: Brain eCB, NAE, MAG, AA and PG levels after i.p. injection; format: in vivo, mice; details: for Brain AA levels / Brain PG levels: 10 mg/kg i.p. (Compound A: any dose tested); for Brain AEA levels: 10 mg/kg i.p.
# Method: 5-7 week old male ICR mice were used for all experiments with the exception of knockout animals (Harlan, Indianapolis, Ind., United States of America). Mice were housed 5 per […]. All behavioral tests were conducted during the light cycle between 0900 and 1700. KO and WT littermate controls for FAAH^(−/−) and COX-2^(−/−) mice were derived from heterozygote breeding pairs, bred and genotyped as described in Uddin et al., 2011. CB1^(−/−) mice were bred from homozygote breeding pairs and genotyped as described in Pan et al., 2008. Mice were group-housed on a 12:12 light-dark cycle (lights on at 06:00), with food and water available ad libitum. All animal studies were approved by the Vanderbilt Institutional Animal Care and Use Committee and conducted in accordance with the Guide for the Care and Use of Laboratory Animals of the United States National Institutes of Health.
# (§1) Mice were sacrificed by cervical dislocation and decapitation. The brain, lungs, liver, stomach, small intestines, and kidneys were then rapidly removed and frozen on a metal block in dry ice. The tissue was then placed in a tube and stored at −80° C. until extraction, usually one day after harvesting. For PG and eCB analysis, lipid extraction from tissue was carried out as described in Patel et al., 2009.
# (§2) Analytes were quantified using LC-MS/MS on a Quantum triple-quadrupole mass spectrometer in positive-ion mode using selected reaction monitoring. Detection of eicosanoids was performed as described in Kingsley & Marnett, 2007. For fatty acid analysis the mobile phases used were 80 μM AgOAc with 0.1% (v/v) acetic acid in H2O (solvent A) and 120 μM AgOAc with 0.1% (v/v) acetic acid in MeOH (solvent B). The analytes were eluted using a gradient from 20% A to 99% B over 5 minutes. The transitions used were m/z 300→282 for PEA, m/z 328→310 for SEA, m/z 434→416 for OEA, m/z 456→438 for AEA, m/z 464→446 for AEA-d8, m/z 331→257 for 2-PG, m/z 359→285 for 2-SG, m/z 463→389 for 2-OG, m/z 485→411 for 2-AG, m/z 493→419 for 2-AG-d8, m/z 519→409 for AA, and m/z 527→417 for AA-d8. Peak areas for the analytes were normalized to the appropriate internal standard and then normalized to tissue mass for in vivo samples.
# ICR mice = assay: Novel open field test; format: in vivo; details: 10 mg/kg
# Method: Animals were tested for open-field activity in a novel environment one hour after i.p. injection of compound as described in Sumislawski et al., 2011. Briefly, one-hour sessions were performed using automated experimental chambers (27.9 27.9 cm; MEDOFA-510; MED Associates, Ga., Vermont, United States of America) under constant illumination within a sound-attenuated room. Analysis of open field activity was performed using Activity Monitor v5.10 (MED Associates).
# purified murine COX-2 = target: T3, purified murine COX-2 (Mus musculus, UniProt Q05769); assay: Inhibition of mCOX-2 dependent oxygenation of 2-AG and AA by profens in vitro; format: biochemical; set-up: made in house; host or cells: insect cells; details: achiral profens; for inhibition at 10 µM: at 10 μM inhibitor
# T3 sequence (Q05769 18-604): T1 sequence (Q05769 18-604)
# Method: Desired concentrations of inhibitor in DMSO or blank (DMSO) were incubated with mCOX-2 (40 nM) for 3 minutes in 100 mM Tris-HCl with 0.5 mM phenol, pH 8.0 at 37° C. After pre-incubation of enzyme and inhibitor, 5 μM of AA or 2-AG was added at 37° C. Thirty seconds later, the reaction was quenched with 200 μL of ice-cold ethyl acetate containing 0.5% acetic acid (v/v) and 1 μM PGE2-d4 and PGE2-G-d5. The solution was then vortexed and the aqueous layer frozen. The organic layer was removed and evaporated to near-dryness under nitrogen. The samples were reconstituted in 1:1 MeOH:H2O and chromatographed using a LUNA® C18(2) column (50 2 mm, 3 μm; Phenomenex, Torrance, Calif., United States of America). […] Analyte peak areas were normalized to the appropriate internal standard to determine the amount of product formation, and inhibition was determined by normalization to a DMSO control.
# [2] = target: T4, COX-2 in RAW 264.7 macrophages (Mus musculus, UniProt Q05769); assay: RAW cells assay: oxygenation of 2-AG and AA; format: cell-based
# T4 construct: endogenous in cells; host or cells: RAW 264.7 macrophages stimulated with LPS (and GM-CSF / interferon γ where described)
# T4 sequence (Q05769 18-604): T1 sequence (Q05769 18-604)
# Method: Two hours after stimulation, varying doses of inhibitor were added to the cell media and 6 hr after stimulation the media were collected and analyzed by LC-MS-MS for prostaglandin levels.
# The cells were then stimulated overnight with 20 ng/ml of granulocyte-macrophage colony-stimulating factor. The media was replaced in the morning with DMEM with GLUTAMAX® and the cells were stimulated with 100 ng/ml lipopolysaccharide and 20 units/ml interferon γ. Two hours after stimulation varying doses of inhibitor were added to the cell media and 6 hours after stimulation the media was collected and extracted in acidified ethyl acetate spiked with deuterated internal standards. The organic layer was dried down under a stream of nitrogen gas and reconstituted in 1:1 water:methanol and analyzed by LC-MS/MS for prostaglandin levels using the same instrumentation, column, solvents and conditions as described for the in vitro assay above.
# [3] = tested on: peripheral tissue eCB, NAE, MAG and PG levels; assay: Peripheral tissue NAE, MAG and PG levels after i.p. injection; format: in vivo, mice; details: stomach, heart, kidney, lung, intestine
# Method: as §1
# as §2, with “samples. […]” for “samples.”
# mCOX-2 = target: T5, mCOX-2 (Mus musculus, UniProt Q05769); assay: Inhibition of COX-2-mediated oxygenation of arachidonic acid and 2-AG, purified enzyme, 15 min preincubation; format: biochemical, murine
# T5 construct: made in house; host or cells: insect cells
# T5 sequence (Q05769 18-604): T1 sequence (Q05769 18-604)
# Method: Various concentrations of inhibitor (or DMSO) were incubated with mCOX-2 (200 nM) for 5-15 minutes in 100 mM Tris-HCl with 0.5 mM phenol, pH 8.0. For mutant mCOX-2 experiments, the enzyme concentration was adjusted such that the turnover was approximately equal to wild type enzyme. The preincubation time was determined on the basis of previous reports regarding the time required to achieve maximal inhibition, and preincubation was performed at 25° C. except for the final 3 minutes, which took place at 37° C. […] After the preincubation of enzyme and inhibitor, arachidonic acid or 2-AG was added for 30 seconds at 37° C. The reaction was quenched with ice-cold ethyl acetate containing 0.5% (v/v) acetic acid and 1 μM PGE2-d4 and PGE2-G-d5. The solution was then vigorously mixed and cooled on ice. The organic layer was separated and evaporated to near-dryness under nitrogen. […] Peak areas for analytes were normalized to the appropriate internal standard to determine the amount of product formation, and the amount of inhibition was determined by normalization to a DMSO control.
# [4] = 2-AG IC50, 2-AG oxygenation by COX-2
# [5] = AA IC50, AA oxygenation by COX-2
# [6] = read-out: IC50, COX-2 oxygenation of 2-AG, 50 μM 2-AG, 15 min preincubation, LC-MS/MS
smiles,measurement,setting,value
COc1ccc2c(c1)c(CC(=O)NCCO)c(C)n2C(=O)c1ccc(Cl)cc1 [C],IC50,wild type mCOX-2; [4],237 nM
same,IC50,wild type mCOX-2; [5],262 nM
Nc1ccc(O)cc1 [4-aminophenol],IC50,COX-2,71000 nM
same,Inhibition of AA oxygenation,COX-2,No inhibition
"CS(=O)(=O)Nc1ccc([N+](=O)[O-])cc1OC1CCCCC1 [NS-398, reference compound]",Brain AA levels,[1]; 2 hours,significantly increased
same,Brain PG levels,[1]; 2 hours,profoundly decreased
same,Brain AEA levels,"[1]; 2 hours, vs vehicle",significantly increased
same,Center distance travelled and center time in the open-field arena,ICR mice,significantly increased
"O=C(O)C1(c2ccc(-c3ccccc3)c(F)c2)CC1 [Compound 5a, 1-(2-fluoro-[1,1′-biphenyl]-4-yl)cyclopropanecarboxylic acid]",inhibition at 10 µM,"purified murine COX-2; AA 5 μM, read-out: AA % Inhibition",0%
same,IC50,"purified murine COX-2; murine COX-2 40 nM, 3 min preincubation, 2-AG 5 μM, 37° C., 30 s, mean ± SD, read-out: 2-AG IC50",2300 nM
same,inhibition at 10 µM,"purified murine COX-2; read-out: Maximum inhibition of 2-AG oxygenation, 2-AG 5 μM",87%
same,inhibition at 25 µM,"[2]; RAW264.7, at 25 μM compound",55%
same,IC50,[2]; conversion of 2-AG to PGE2-G/PGD2-G,10200 nM
COc1ccc2c(c1)c(CC(=O)N(C)CCc1ccccc1)c(C)n2C(=O)c1ccc(Cl)cc1 [G],IC50,wild type mCOX-2; [4],715 nM
same,IC50,wild type mCOX-2; [5],> 25000 nM
"CC(=O)Nc1ccc(O)cc1 [APAP, acetaminophen]",Inhibition of AA oxygenation,COX-2,No inhibition
"COc1ccc2c(c1)c(CC(=O)O)c(C)n2C(=O)c1ccc(Cl)cc1 [indomethacin, reference compound]",Brain AA levels,[1]; 2 hours,significantly increased
same,Brain PG levels,[1]; 2 hours,profoundly decreased
same,Brain 2-AG levels,"[1]; 10 mg/kg i.p. (highest dose), 2 hours, vs vehicle",significantly increased
same,Brain AEA levels,"[1]; 2 hours, vs vehicle",significantly increased
same,Brain AEA levels (Example 8),"[1]; 2 hours after i.p administration, dose not stated",increased
same,Brain or lung PG levels (Example 8),[1]; dose not stated,profoundly decreased
same,PG levels in peripheral tissues,[3],robustly decreased
same,Center distance travelled and center time in the open-field arena,ICR mice,significantly increased
same,Center distance travelled and center time in the open-field arena,ICR mice; listed as Indomethacin,increased
CCN(CC)C(=O)Cc1c(C)n(C(=O)c2ccc(Cl)cc2)c2ccc(OC)cc12 [E],IC50,wild type mCOX-2; [4],583 nM
same,IC50,wild type mCOX-2; [5],23000 nM
CS(=O)(=O)c1ccc(C2=C(c3ccccc3)C(=O)OC2)cc1 [Rofecoxib],IC50,"mCOX-2; read-out: IC50, COX-2 oxygenation of 2-AG",85 nM
same,IC50,"mCOX-2; read-out: IC50, COX-2 oxygenation of arachidonic acid",520 nM
Cc1ccc(Nc2c(F)cccc2Cl)c(CC(=O)O)c1 [Lumiracoxib],"IC50, COX-2 oxygenation of arachidonic acid","mCOX-2; 50 μM AA, 15 min preincubation, LC-MS/MS",No inhibition
same,IC50,mCOX-2; [6],40 nM
COc1ccc2c(c1)c(CC(=O)N1CCCCC1)c(C)n2C(=O)c1ccc(Cl)cc1 [F],IC50,wild type mCOX-2; [4],653 nM
same,IC50,wild type mCOX-2; [5],> 25000 nM
COc1ccc2c(c1)c(CC(N)=O)c(C)n2C(=O)c1ccc(Cl)cc1 [B],IC50,wild type mCOX-2; [4],590 nM
same,IC50,wild type mCOX-2; [5],610 nM
COc1ccc2c(c1)c(CC(=O)N(C)C)c(C)n2C(=O)c1ccc(Cl)cc1 [D],IC50,wild type mCOX-2; [4],424 nM
same,IC50,wild type mCOX-2; [5],19000 nM
"COc1ccc(-n2nc(C(F)(F)F)cc2-c2ccc(Cl)cc2)cc1 [SC-560, reference compound]",Brain AA levels,[1]; 2 hours,significantly increased
same,Brain PG levels,[1]; 2 hours,profoundly decreased
same,Brain AEA levels,"[1]; 2 hours, vs vehicle",significantly increased
same,Center distance travelled and center time in the open-field arena,ICR mice,did not have any significant behavioral effect; also recorded: no significant behavioral effects
COc1ccc2c(c1)c(CC(=O)O)cn2C(=O)c1ccc(Cl)cc1 [DM-INDO],IC50,"mCOX-2; 50 μM AA, 15 min preincubation, LC-MS/MS, read-out: IC50, COX-2 oxygenation of arachidonic acid",> 25000 nM
same,IC50,mCOX-2; [6],250 nM
